Where two headings read alike, the source gives them in different places.
How the values were obtained:
[1] = system: blood platelet aggregation; conditions: literature; cited from earlier work
[2] = system: formation of thromboxane B2; assay: formation of thromboxane B2
[3] = system: human platelet-rich plasma; assay: platelet aggregation in citrated human platelet-rich plasma (aggregometer); assay type: cell-based
Method: Platelet aggregation was studied in an aggregometer (Chronolog Corp., Phila., PA) using 0.5 ml citrated human platelet-rich plasma at 35° C. One minute after addition of analogue (up to 2 μl of a 25 mM solution in ethanol) aggregation was initiated by addition of sodium arachidonate (0.3-0.5 mM), ADP (2 μM) collagen (1 μg/ml), epinephrine (50 μM), 9,11-azo-PGH2 (0.1-0.6 μM). The analogues were also tested for their effects on the inhibition of ADP-induced aggregation by 2 nM prostacyclin or 20 nM prostaglandin D2.

[4] = system: cat coronary arteries; assay: constriction of isolated perfused cat coronary arteries (perfusion pressure at constant flow); assay type: cell-based
Method: Thromboxane A2 analogues (up to 4 μl of a 2.5 mM solution in ethanol) were tested for their effects on cat coronary arteries continuously perfused with 10 ml Krebs-Henseleit solution as described below.
Cats of either sex (2.5-3.5 kg) were anesthetized with sodium pentobarbital (30 mg/kg) given intravenously. […] A 20-gauge stainless steel cannula was inserted into the right coronary artery via the coronary ostium. Distal to the cannula, approximately 1 cm of coronary artery was dissected free of surrounding tissue. The section of right coronary artery with the cannula in place was excised from the heart and immediately transferred to a constant flow perfusion apparatus.
The perfusion apparatus consists of a reservoir containing 20 ml of warm (37° C.) oxygenated (95% O2 +5% CO2) K-H solution which bathes the coronary artery and serves as recirculating perfusate. An increase in perfusion pressure signifies […]. Following an initial 1 hr. equilibrium period, vascular responsiveness was established by adding 25 mM KCl. […] Fresh K-H dilutions of stock thromboxane analog concentrations were added to the perfusate reservoir in 0.1-0.2 ml volumes. […] Constriction of the arteries was induced by addition of 15 or 30 nM 9,11-azo-prostaglandinendoperoxide (azo-PGH2), or 1 μM 9,11-methanoepoxy-PGH2.

[5] = system: New Zealand white rabbits; assay: effect of CTA2 on intact anesthetized rabbits; assay type: in vivo, rabbit
Method: To study the effect of CTA2 on intact animals, New Zealand white rabbits 2-3.5 kg were anesthetized with pentobarbital sodium (25 mg/kg) and placed in the supine position. The right femoral and external jugular veins and the left common carotid artery were cannulated with polyethylene catheters. Standard limb needle electrodes were placed subcutaneously for recording the electrocardiogram (ECG). The trachea was cannulated with a glass tube connected to a pressure transducer for the recording of airway pressure. Mean arterial blood pressure (MABP), central venous pressure (CVP), airway pressure, and lead III of the ECG were continuously recorded on a Grass Model 7 oscillographic recorder. Sodium arachidonate (95% pure, Sigma Chamical) at 2.0 mg/kg or CTA2 (125 μg/kg) were injected into the […], and the rabbit observed until death. Two ml blood samples were drawn into 25 mM EDTA just prior to injection of drug and just prior to death for radio-immunoassay of thromboxane B2.

[6] = system: coronary artery; conditions: normal and high concentrations; literature; cited from earlier work
[7] = cited from earlier work

## CCCCCC/C=C/C1C2CC(ON2)C1C/C=C\CCCC(=O)O (stereo not drawn) [15-deoxy-9,11-epoxyimino-PGH2]
[1]
  effect on platelet aggregation: inhibits platelet aggregation

## CCCCCC/C=C/C1C2CC(N=N2)C1C/C=C\CCCC(=O)O (stereo not drawn) [15-deoxy-9, 11-azo-PGH2]
[1]
  effect on platelet aggregation: inhibits platelet aggregation

## CCCCC[C@H](O)/C=C/C1CC2CC(C2)C1C/C=C\CCCC(=O)O (stereo partly drawn) [CTA2, Carbocyclic Thromboxane A2, free acid]
[2]
  inhibition of the formation of thromboxane B2: selectively inhibits
[3]
  inhibition of arachidonic acid induced platelet aggregation: potent inhibitor
  intrinsic ability to aggregate platelets: no intrinsic ability to agreggate plateletes
[3]; 1-2 μM
  effect on arachidonic acid induced aggregation: delayed the onset of platelet aggregation without actually inhibiting the magnitude of the overall response
[3]; arachidonic acid, 9-11-azo PGH2, 9,11-methanoepoxy PGH2 and 9,11-epoxymethano PGH2
  inhibition of platelet aggregation to a variety of prostanoids: very potent inhibitor
[3]; at 4 to 5 μM
  prevention of induced platelet aggregation: completely prevented
[3]; lower concentrations, 1 to 4 μM
  prevention of induced platelet aggregation: only partially protective
[3]; up to concentrations of 100 μM
  induction of platelet aggregation in vitro: failed to induce platelet aggregation
[4]; CTA2 vs azo-PGH2 >9,11-methanoepoxy-PGH2 >9,11 epoxymethano-PGH2 >>PGH2 >>Thromboxane B2
  rank order of constrictor potency: more potent a constrictor
[4]; cat coronary arteries
  vasoconstricting potency compared with natural thromboxane A2: potencies comparable to those of the natural thromboxane A2
[4]; concentrations up to 10^-7 M
  antagonism of the coronary constrictor effects of 9,11-methanoepoxy PGH2: did not antagonize
[4]; isolated perfused cat coronary arteries
  constriction (increased perfusion pressure at constant flow): dose-dependent constriction
[4]; relative to 9,11-azo PGH2
  potency relative to 9,11-azo PGH2 (EC20): 4 times
[4]; relative to 9,11-methanoepoxy PGH2 and 9,11-epoxymethano PGH2
  potency relative to the other two PGH2 derivatives (EC20): 5-6 times
[4]; relative to TB2
  potency relative to TB2, by concentration giving a 20 mm Hg increase in coronary perfusion pressure (EC20): 10,000 times
[5]; anesthetized rabbit, 125 μg/kg intravenously, typical response
  time of death after injection: nine
[5]; severe myocardial ischemia without coronary thrombosis
  sudden cardiac death in rabbits: induces sudden cardiac death

## CCCCC[C@@H](O)/C=C/[C@H]1C[C@H]2C[C@@H]([C@@H]1C/C=C\CCCC(=O)O)C2(C)C [PTA2, pinane thromboxane A2, reference compound]
[6]
  effect on coronary artery contraction: inhibits coronary artery contraction
[4]
  antagonism of the coronary constrictor effects of CTA2: almost completely antagonized

## CCCCC[C@H](O)/C=C/[C@H]1O[C@H]2C[C@H](O2)[C@@H]1C/C=C\CCCC(=O)O [TA2, thromboxane A2]
[7]; pH 7.4 and 37° C.
  half-life: 30 s

## CCCCC[C@H](O)/C=C/[C@@H]1[C@H]2C/C(=C/CCCC(=O)O)O[C@H]2C[C@H]1O [prostacyclin, 6,9 α-oxido-11α, 15 α-dihydroxyprosta (Z), 5, E (13)-dienoic acid]
[7]; physiological conditions
  half-life: about 2 minutes
[1]
  effect on platelet aggregation: most potent inhibitor of blood platelet aggregation
